Test results published in US10479819B2 (priority 2014, dated 2019).
Like-named read-outs stand apart in the source and are kept apart here. Starred links: 1 amine or outer side, 2 acyl side, 3 side chain; linkers in the order of their positions; H or OH if unused. Non-standard residues stand in square brackets, D forms with d. Residues, ends and D or L forms follow the SMILES beside them. Groups on a side chain read outwards from the residue. *: point of attachment. C18 diacid = O=C(O)CCCCCCCCCCCCCCCCC(=O)*; γGlu = O=C(O)[C@H](CCC(=O)[*:2])N[*:1]; PEG2 = NCCOCCOCCC(=O)O

What was measured:
human GLP-1R = target: T1, human GLP-1R (Homo sapiens, UniProt P43220); assay: In vitro activity on GLP-1R, CRE-luciferase HEK-293 cells; assay type: cell-based; conditions: for GLP-1R/GCGR: ratio of EC50 GLP-1R to EC50 GCGR
T1 construct: expressed in transfected cells
Experimental: (§1) 5000 of HEK-293 cells, which are used in CRE-luciferase system and express human GCGR or GLP-1R stably, were inoculated into 384 well plates according to […] DMEM/10% FBS media/well. […] After incubation, […] of luciferase reagent was added directly to each plate and mixed gently for 2 minutes. The plates were placed into an Elmer Perkin plate reader for reading. Concentration curve of the compound was made by drawing software Prism 5, and the EC50 value was calculated.

[1] = Pharmacokinetic analysis after IV or SC administration in male CD1 mice; conditions: for Tmax / half-life: iv
Experimental: Pharmacokinetic parameters of the drugs were calculated by methods of model dependence (for data obtained from IV) and model independence (data obtained from SC).

male C57B1/6J mice = assay: Oral glucose tolerance test in male C57B1/6J mice; assay type: in vivo; conditions: 250 μg/kg; for AUC of blood glucose in all four OGTT curve periods (0-480 min) compared with carrier (PBS): P<0.05; for effect on oral glucose tolerance: male C57B1/6J mice
Experimental: 12-16 week-old male C57B1/6J mice (Nanjing University model animal research center) were randomly divided into groups 8 in each group, according to similar blood glucose (assessed by the blood samples obtained from the tail tip). After fasting (for 6 hours), the animals were administrated, and about 4 hours later, initial blood samples (fasting blood glucose level) were taken. Subsequently, the animals were administrated with an oral dose of glucose, and then put back into their cages (t=0). Blood glucose was measured at t=15 minutes, t=30 minutes, t=60 minutes, t=90 minutes and t=120 minutes. And then the animals were administrated with an oral dose of glucose again, and blood glucose was tracked until 8 hours.

DIO mice = assay: Body weight reduction in DIO (obese) mice; assay type: in vivo; conditions: 250 μg/kg SC daily, day 11 to day 30, DIO mice; for body weight compared with normal saline group: P<0.05
Source text: Forty 25-week-old DIO mice (Nanjing University model animal research center) were randomly divided into five groups (compound 4, 5, 6, 7, and normal saline group), 8 in each group, having no difference in the basis weight of each group.

human GCGR = target: T2, human GCGR (Homo sapiens, UniProt P47871); assay: In vitro activity on GCGR, CRE-luciferase HEK-293 cells; assay type: cell-based; conditions: read-out: GCGR (EC50)
T2 construct: expressed in transfected cells
Experimental: as §1

T2 sequence (P47871 26-477): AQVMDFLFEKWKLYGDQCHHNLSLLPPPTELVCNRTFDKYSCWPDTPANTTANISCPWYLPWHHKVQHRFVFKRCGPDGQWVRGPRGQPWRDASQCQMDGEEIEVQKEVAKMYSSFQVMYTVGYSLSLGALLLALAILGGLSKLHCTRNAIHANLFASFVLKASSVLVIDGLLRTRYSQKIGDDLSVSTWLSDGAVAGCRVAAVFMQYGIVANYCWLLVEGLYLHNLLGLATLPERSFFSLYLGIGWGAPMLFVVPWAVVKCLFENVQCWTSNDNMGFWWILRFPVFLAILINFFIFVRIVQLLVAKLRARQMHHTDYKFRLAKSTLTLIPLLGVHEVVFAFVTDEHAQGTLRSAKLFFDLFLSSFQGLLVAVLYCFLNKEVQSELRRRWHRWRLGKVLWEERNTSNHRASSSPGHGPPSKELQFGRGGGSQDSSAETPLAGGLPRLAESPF
T1 sequence (P43220 24-463): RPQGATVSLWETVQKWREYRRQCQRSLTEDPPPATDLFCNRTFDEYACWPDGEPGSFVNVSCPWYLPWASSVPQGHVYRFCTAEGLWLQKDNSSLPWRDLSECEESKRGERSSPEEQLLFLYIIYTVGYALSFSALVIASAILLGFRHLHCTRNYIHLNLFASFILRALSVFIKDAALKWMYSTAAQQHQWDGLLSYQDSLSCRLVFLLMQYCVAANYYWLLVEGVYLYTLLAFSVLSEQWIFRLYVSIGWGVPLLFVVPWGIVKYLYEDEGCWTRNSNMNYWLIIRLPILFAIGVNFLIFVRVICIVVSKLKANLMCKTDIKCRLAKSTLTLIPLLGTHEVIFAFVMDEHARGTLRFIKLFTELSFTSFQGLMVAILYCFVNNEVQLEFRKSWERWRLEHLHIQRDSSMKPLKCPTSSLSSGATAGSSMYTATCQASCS

SMILES | EC50 (human GLP-1R) [nM] | GLP-1R/GCGR (human GLP-1R) | clinical adverse effect ([1]; IV or SC route, male CD1 mice) | Tmax ([1]; mouse, in vivo) [h] | half-life ([1]; mouse, in vivo) [h] | AUC of blood glucose in all four OGTT curve periods (0-480 min) compared with carrier (PBS) (male C57B1/6J mice) | effect on oral glucose tolerance (male C57B1/6J mice) | weight loss (DIO mice) | body weight compared with normal saline group (DIO mice) | clinical adverse effect ([1]; mouse, in vivo) | peak time ([1]; mouse, in vivo, sc) | EC50 (human GCGR) [nM] | EC50 (human GLP-1R; read-out: GLP-1R (EC50)) [nM]
CC[C@H](C)[C@H](NC(=O)[C@H](Cc1ccccc1)NC(=O)[C@H](CCC(=O)O)NC(=O)[C@H](CCCCNC(=O)CCOCCOCCNC(=O)CCOCCOCCNC(=O)CC[C@H](NC(=O)CCCCCCCCCCCCCCCCC(=O)O)C(=O)O)NC(=O)[C@H](C)NC(=O)[C@H](C)NC(=O)[C@H](CCCCN)NC(=O)[C@H](CCC(=O)O)NC(=O)[C@H](CC(=O)O)NC(=O)[C@H](CC(C)C)NC(=O)[C@H](Cc1ccc(O)cc1)NC(=O)[C@H](CCCCN)NC(=O)[C@H](CO)NC(=O)[C@H](Cc1ccc(O)cc1)NC(=O)[C@H](CC(=O)O)NC(=O)[C@H](CO)NC(=O)[C@@H](NC(=O)[C@H](Cc1ccccc1)NC(=O)[C@@H](NC(=O)CNC(=O)[C@H](CCC(N)=O)NC(=O)[C@@H](CO)NC(=O)[C@@H](N)Cc1c[nH]cn1)[C@@H](C)O)[C@@H](C)O)C(=O)N[C@@H](CCC(=O)O)C(=O)N[C@@H](Cc1c[nH]c2ccccc12)C(=O)N[C@@H](CC(C)C)C(=O)N[C@@H](CC(C)C)C(=O)N[C@@H](CC(N)=O)C(=O)NCC(=O)NCC(=O)N1CCC[C@H]1C(=O)N[C@@H](CO)C(=O)N[C@@H](CO)C(=O)NCC(=O)N[C@@H](C)C(=O)N1CCC[C@H]1C(=O)N1CCC[C@H]1C(=O)N1CCC[C@H]1C(=O)N[C@@H](CO)C(N)=O [Compound 4] (H-H[dS]QGTFTSDYSKYLDEKAAK([PEG2-PEG2-γGlu-C18 diacid])EFIEWLLNGGPSSGAPPPS-NH2) | 0.13 | 0.3 | no clinical adverse effect | ~12 | 4 to 6 | significantly decreased | significantly reduced the oral glucose tolerance | about 20% | significantly lower | – | – | – | –
CSCC[C@H](NC(=O)[C@H](CC(C)C)NC(=O)[C@H](Cc1c[nH]c2ccccc12)NC(=O)[C@H](CCC(N)=O)NC(=O)[C@@H](NC(=O)[C@H](Cc1ccccc1)NC(=O)[C@H](CC(=O)O)NC(=O)[C@H](CCC(N)=O)NC(=O)[C@H](C)NC(=O)[C@H](CCCNC(=N)N)NC(=O)[C@H](CCCNC(=N)N)NC(=O)C(C)(C)NC(=O)[C@H](CC(=O)O)NC(=O)[C@H](CC(C)C)NC(=O)[C@H](Cc1ccc(O)cc1)NC(=O)[C@H](CCCCN)NC(=O)[C@H](CO)NC(=O)[C@H](CCCCNC(=O)CCOCCOCCNC(=O)CCOCCOCCNC(=O)CCCCCCCCCCCCCCCCC(=O)O)NC(=O)[C@H](CC(=O)O)NC(=O)[C@H](CO)NC(=O)[C@@H](NC(=O)[C@H](Cc1ccccc1)NC(=O)[C@@H](NC(=O)CNC(=O)[C@H](CCC(N)=O)NC(=O)[C@@H](CO)NC(=O)[C@@H](N)Cc1c[nH]cn1)[C@@H](C)O)[C@@H](C)O)C(C)C)C(=O)N[C@@H](CC(N)=O)C(=O)N[C@H](C(=O)NCC(=O)NCC(=O)N1CCC[C@H]1C(=O)N[C@@H](CO)C(=O)N[C@@H](CO)C(=O)NCC(=O)N[C@@H](C)C(=O)N1CCC[C@H]1C(=O)N1CCC[C@H]1C(=O)N1CCC[C@H]1C(=O)N[C@@H](CO)C(N)=O)[C@@H](C)O [Compound 6] | – | 0.3 | – | ~12 | 4 to 6 | significantly decreased | significantly reduced the oral glucose tolerance | about 20% | significantly lower | no clinical adverse effect | more than 12 hours | – | –
CSCC[C@H](NC(=O)[C@H](CC(C)C)NC(=O)[C@H](Cc1c[nH]c2ccccc12)NC(=O)[C@H](CCC(N)=O)NC(=O)[C@@H](NC(=O)[C@H](Cc1ccccc1)NC(=O)[C@H](CC(=O)O)NC(=O)[C@H](CCC(N)=O)NC(=O)[C@H](C)NC(=O)[C@H](CCCNC(=N)N)NC(=O)[C@H](CCCNC(=N)N)NC(=O)C(C)(C)NC(=O)[C@H](CC(=O)O)NC(=O)[C@H](CC(C)C)NC(=O)[C@H](Cc1ccc(O)cc1)NC(=O)[C@H](CCCCN)NC(=O)[C@H](CO)NC(=O)[C@H](CCCCNC(=O)CCOCCOCCNC(=O)CCOCCOCCNC(=O)CC[C@H](NC(=O)CCCCCCCCCCCCCCCCC(=O)O)C(=O)O)NC(=O)[C@H](CC(=O)O)NC(=O)[C@H](CO)NC(=O)[C@@H](NC(=O)[C@H](Cc1ccccc1)NC(=O)[C@@H](NC(=O)CNC(=O)[C@H](CCC(N)=O)NC(=O)[C@@H](CO)NC(=O)[C@@H](N)Cc1c[nH]cn1)[C@@H](C)O)[C@@H](C)O)C(C)C)C(=O)N[C@@H](CC(N)=O)C(=O)N[C@H](C(=O)NCC(=O)NCC(=O)N1CCC[C@H]1C(=O)N[C@@H](CO)C(=O)N[C@@H](CO)C(=O)NCC(=O)N[C@@H](C)C(=O)N1CCC[C@H]1C(=O)N1CCC[C@H]1C(=O)N1CCC[C@H]1C(=O)N[C@@H](CO)C(N)=O)[C@@H](C)O [Compound 8] | – | 1.1 | – | – | – | – | – | – | – | – | – | 0.18 | –
CSCC[C@H](NC(=O)[C@H](CC(C)C)NC(=O)[C@H](Cc1c[nH]c2ccccc12)NC(=O)[C@H](CCC(N)=O)NC(=O)[C@@H](NC(=O)[C@H](Cc1ccccc1)NC(=O)[C@H](CC(=O)O)NC(=O)[C@H](CCC(N)=O)NC(=O)[C@H](C)NC(=O)[C@H](CCCNC(=N)N)NC(=O)[C@H](CCCNC(=N)N)NC(=O)[C@H](CCCCNC(=O)CCOCCOCCNC(=O)CCOCCOCCNC(=O)CCCCCCCCCCCCCCCCC(=O)O)NC(=O)[C@H](CC(=O)O)NC(=O)[C@H](CC(C)C)NC(=O)[C@H](Cc1ccc(O)cc1)NC(=O)[C@H](CCCCN)NC(=O)[C@H](CO)NC(=O)[C@H](Cc1ccc(O)cc1)NC(=O)[C@H](CC(=O)O)NC(=O)[C@H](CO)NC(=O)[C@@H](NC(=O)[C@H](Cc1ccccc1)NC(=O)[C@@H](NC(=O)CNC(=O)[C@H](CCC(N)=O)NC(=O)[C@@H](CO)NC(=O)[C@@H](N)Cc1c[nH]cn1)[C@@H](C)O)[C@@H](C)O)C(C)C)C(=O)N[C@@H](CC(N)=O)C(=O)N[C@H](C(=O)NCC(=O)NCC(=O)N1CCC[C@H]1C(=O)N[C@@H](CO)C(=O)N[C@@H](CO)C(=O)NCC(=O)N[C@@H](C)C(=O)N1CCC[C@H]1C(=O)N1CCC[C@H]1C(=O)N1CCC[C@H]1C(=O)N[C@@H](CO)C(N)=O)[C@@H](C)O [Compound 9] | – | 2.9 | – | – | – | – | – | – | – | – | – | 0.18 | –
CSCC[C@H](NC(=O)[C@H](CC(C)C)NC(=O)[C@H](Cc1c[nH]c2ccccc12)NC(=O)[C@H](CCC(N)=O)NC(=O)[C@@H](NC(=O)[C@H](Cc1ccccc1)NC(=O)[C@H](CC(=O)O)NC(=O)[C@H](CCC(N)=O)NC(=O)[C@H](C)NC(=O)[C@H](CCCNC(=N)N)NC(=O)[C@H](CCCNC(=N)N)NC(=O)[C@H](CCCCNC(=O)CCOCCOCCNC(=O)CCOCCOCCNC(=O)CC[C@H](NC(=O)CCCCCCCCCCCCCCCCC(=O)O)C(=O)O)NC(=O)[C@H](CC(=O)O)NC(=O)[C@H](CC(C)C)NC(=O)[C@H](Cc1ccc(O)cc1)NC(=O)[C@H](CCCCN)NC(=O)[C@H](CO)NC(=O)[C@H](Cc1ccc(O)cc1)NC(=O)[C@H](CC(=O)O)NC(=O)[C@H](CO)NC(=O)[C@@H](NC(=O)[C@H](Cc1ccccc1)NC(=O)[C@@H](NC(=O)CNC(=O)[C@H](CCC(N)=O)NC(=O)[C@@H](CO)NC(=O)[C@@H](N)Cc1c[nH]cn1)[C@@H](C)O)[C@@H](C)O)C(C)C)C(=O)N[C@@H](CC(N)=O)C(=O)N[C@H](C(=O)NCC(=O)NCC(=O)N1CCC[C@H]1C(=O)N[C@@H](CO)C(=O)N[C@@H](CO)C(=O)NCC(=O)N[C@@H](C)C(=O)N1CCC[C@H]1C(=O)N1CCC[C@H]1C(=O)N1CCC[C@H]1C(=O)N[C@@H](CO)C(N)=O)[C@@H](C)O [Compound 11] | – | 0.8 | – | – | – | – | – | – | – | – | – | 0.18 | 0.15
